Experimental data published in ChEMBL document CHEMBL4308863, “Oxidative nucleophilic substitution selectively produces cambinol derivatives with antiproliferative activity on bladder cancer cell lines” (Bioorg Med Chem Lett, 2019).
Calls of active or inactive are those of the source. The rule behind the calls is not given here.

Experiments:
EJ [1] = experiment: Antiproliferative activity against human MGHU1 cells expressing wild-type p53 assessed as decrease in cell viability after 24 hrs by MTT assay; format: functional, cell-based
EJ [2] = experiment: Antiproliferative activity against human MGHU1 cells expressing wild-type p53 assessed as decrease in cell viability after 3 hrs by MTT assay; format: functional, cell-based
[3] = Cytotoxicity against human C3PV cells assessed as decrease in cell viability after 3 hrs by MTT assay; format: cell-based
[4] = Cytotoxicity against human C3PV cells assessed as decrease in cell viability after 24 hrs by MTT assay; format: cell-based
[5] = molecular target: T1, NAD-dependent protein deacetylase sirtuin-1 (Homo sapiens) (UniProt Q96EB6); experiment: Inhibition of SIRT1 (unknown origin) at 10 uM using acetylated peptide p53K382 as substrate preincubated for 15 mins followed by substrate addition and measured after 40 mins by fluorescence assay
T1 sequence (whole entry): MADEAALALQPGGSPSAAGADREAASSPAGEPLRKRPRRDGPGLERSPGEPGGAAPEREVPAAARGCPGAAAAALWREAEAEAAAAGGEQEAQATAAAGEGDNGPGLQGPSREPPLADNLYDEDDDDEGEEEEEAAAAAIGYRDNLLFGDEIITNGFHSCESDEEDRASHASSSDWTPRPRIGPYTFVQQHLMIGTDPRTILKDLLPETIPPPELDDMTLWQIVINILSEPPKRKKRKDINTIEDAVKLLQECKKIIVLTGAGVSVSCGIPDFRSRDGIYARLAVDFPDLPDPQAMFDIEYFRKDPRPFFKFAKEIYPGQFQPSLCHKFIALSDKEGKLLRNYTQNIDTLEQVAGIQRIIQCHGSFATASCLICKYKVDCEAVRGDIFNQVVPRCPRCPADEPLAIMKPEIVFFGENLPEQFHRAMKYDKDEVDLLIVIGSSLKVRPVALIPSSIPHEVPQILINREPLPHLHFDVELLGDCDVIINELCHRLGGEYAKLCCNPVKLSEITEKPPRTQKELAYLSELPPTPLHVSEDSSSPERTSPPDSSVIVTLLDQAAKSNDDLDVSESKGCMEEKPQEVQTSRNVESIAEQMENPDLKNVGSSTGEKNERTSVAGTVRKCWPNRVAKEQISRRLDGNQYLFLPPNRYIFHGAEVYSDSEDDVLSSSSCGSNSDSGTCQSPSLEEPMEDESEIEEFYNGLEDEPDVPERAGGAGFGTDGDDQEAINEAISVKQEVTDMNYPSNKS

RT-112 [6] = experiment: Antiproliferative activity against human RT112 cells expressing p53 mutant assessed as decrease in cell viability after 3 hrs by MTT assay; format: functional, cell-based; conditions: RT-112, 3 h
RT-112 [7] = experiment: Antiproliferative activity against human RT112 cells expressing p53 mutant assessed as decrease in cell viability after 24 hrs by MTT assay; format: functional, cell-based; conditions: RT-112, 24 h
EJ [8] = experiment: Effect on acetylated-histone H3 expression in human MGHU1 cells after 3 to 24 hrs by Western blot analysis; format: functional, cell-based
[9] = molecular target: T1, NAD-dependent protein deacetylase sirtuin-1 (Homo sapiens); experiment: Inhibition of SIRT1 in human MGHU1 cells assessed as induction of p53 after 3 to 24 hrs by Western blot analysis; format: cell-based
EJ [10] = experiment: Effect on acetylated-p53 expression in human MGHU1 cells after 3 to 24 hrs by Western blot analysis; format: functional, cell-based
[11] = molecular target: T1, NAD-dependent protein deacetylase sirtuin-1 (Homo sapiens); experiment: Inhibition of SIRT1 in human MGHU1 cells assessed as stabilization of p53 by measuring increase in p53 acetylation after 3 to 24 hrs by Western blot analysis; format: cell-based
EJ [12] = experiment: Inhibition of colony formation in human MGHU1 cells expressing wild-type p53 at […] uM after 3 to 24 hrs by crystal violet staining based assay; format: functional, cell-based
RT-112 [13] = experiment: Inhibition of colony formation in human RT112 cells expressing p53 mutant at 24.50 to 28.74 uM after 3 to 24 hrs by crystal violet staining based assay; format: functional, cell-based

inhibition [5]	inhibition [9]	inhibition [11]	SMILES	IC50 (EJ [1])	IC50 (EJ [2])	IC50 [3]	IC50 [4]	IC50 (RT-112 [6])	IC50 (RT-112 [7])	Activity (EJ [8])	Activity (EJ [10])	inhibition (EJ [12])	inhibition (RT-112 [13])
inactive			CCN(CC)c1nc(-c2ccccc2)c(Cc2c(O)ccc3ccccc23)c(=O)[nH]1	79.7 µM	15.4 µM	> 300 µM	> 300 µM	32.2 µM	155 µM				
inactive			O=c1[nH]c(NCCc2ccc(O)c(O)c2)nc(-c2ccccc2)c1Cc1c(O)ccc2ccccc12	71.7 µM	12.6 µM	> 300 µM	> 300 µM	35.9 µM	79.3 µM				
inactive			O=c1[nH]c(NCCO)nc(-c2ccccc2)c1Cc1c(O)ccc2ccccc12	> 300 µM	282 µM	> 300 µM	> 300 µM	7.2 µM	96.6 µM				
inactive	inactive	inactive	CCCCNc1nc(-c2ccccc2)c(Cc2c(O)ccc3ccccc23)c(=O)[nH]1	28.7 µM	24.5 µM	47.6 µM	> 300 µM	1.9 µM	1.6 µM	inactive	inactive	Active	Active
inactive			C#CCNc1nc(-c2ccccc2)c(Cc2c(O)ccc3ccccc23)c(=O)[nH]1	148 µM	16.8 µM	> 300 µM	> 300 µM	91.2 µM	130 µM				
inactive			COc1ccc(Nc2nc(-c3ccccc3)c(Cc3c(O)ccc4ccccc34)c(=O)[nH]2)cc1	63.7 µM	160 µM	> 300 µM	> 300 µM	18.5 µM	138 µM				
			O=c1[nH]c(=S)[nH]c(-c2ccccc2)c1Cc1c(O)ccc2ccccc12 [CAMBINOL]	242 µM	95.9 µM	39.9 µM	> 300 µM	37.9 µM	125 µM				
inactive			O=c1[nH]c(Nc2ccc(O)cc2)nc(-c2ccccc2)c1Cc1c(O)ccc2ccccc12	92.4 µM	90.9 µM	> 300 µM	> 300 µM	> 300 µM	265 µM				
inactive			O=c1[nH]c(NCCc2ccc(O)cc2)nc(-c2ccccc2)c1Cc1c(O)ccc2ccccc12	82.1 µM	22.1 µM	145 µM	> 300 µM	48.9 µM	106 µM				
